Assay results as given in patent publication US7238679B2, “Heterocycles and uses thereof” (Ariad Pharmaceuticals, Inc., priority 2002, dated 2007).

How the values were obtained:
MDA-468 tumor cell line = assay: Conventional cell-based assay against the MDA-468 tumor cell line
Text: Cell-based methods for measuring antiproliferative activity are well known and can be used for comparative characterization of compounds of this invention. In general, cell proliferation and cell viability assays are designed to provide a detectable signal when cells are metabolically active. Compounds may be tested for antiproliferative activity by measuring any observed decrease in metabolic activity of the cells after exposure of the cells to compound. Commonly used methods include, for example, measurement of membrane integrity (as a measure of cell viability)(e.g. using trypan blue exclusion) or measurement of DNA synthesis (e.g. by measuring incorporation of BrdU or 3H-thymidine).
Some methods for assaying cell proliferation use a reagent that is converted into a detectable compound during cell proliferation. Particularly preferred compounds are tetrazolium salts and include without limitation MTT (3-(4, 5-dimethylthiazol-2-yl)-2,5-diphenyltetrazolium bromide; Sigma-Aldrich, St. Louis, Mo.), MTS (3-(4,5-dimethylthiazol-2-yl)-5-(3-carboxymethoxyphenyl)-2-(4-sulfophenyl)-2H-tetrazolium), XTT (2,3-bis(2-Methoxy4-nitro-5-sulfophenyl)-2H-tetrazolium-5-carboxanilide), INT, NBT, and NTV (Bernas et al. Biochim Biophys Acta 1451(1):73–81, 1999). Preferred assays utilizing tetrazolium salts detect cell proliferation by detecting the product of the enzymatic conversion of the tetrazolium salts into blue formazan derivatives, which are readily detected by spectroscopic methods (Mosman. J. Immunol. Methods. 65:55–63, 1983).
Generally, preferred methods for assaying cell proliferation involve incubating cells in a desired growth medium with and without the compounds to be tested. […] Cells are processed, and the optical density of the cells is determined to measure the amount of formazan derivatives. […]

Row | Structure (SMILES) | IC50 (MDA-468 tumor cell line) [µM] | melting point [°C]
1 | CCOP(=O)(OCC)c1cc2c(Nc3ccc(F)c(Cl)c3)ncnc2cc1OC [Example 5, 4-[(3-Chloro-4-fluorophenyl)amino]-7-methoxy-6-(diethylphosphonate)-quinazoline] | < 50 | 215 to 217
2 | CCOP(C)(=O)c1cc2c(Nc3ccc(F)c(Cl)c3)ncnc2cc1OC (stereo not drawn) [Example 7, 4-[(3-Chloro-4-fluorophenyl)amino]-7-methoxy-6-(ethyl-methylphosphinate)-quinazoline] | < 50 | 199 to 200
3 | COc1cc2ncnc(Nc3ccc(F)c(Cl)c3)c2cc1P(C)(C)=O [Example 3, 4-[(3-Chloro-4-fluorophenyl)amino]-7-methoxy-6-(dimethylphosphinoyl)-quinazoline] | < 50 | 257 to 259
